Literature values, collected in EP0303681B1 (priority 1987, dated 1988).

## Sc1ncnc2nc[nH]c12 [6 MP, 6-mercaptopurine]
Alkaline solutions
  solubility in alkaline solutions: soluble
Hot ethanol
  solubility in hot ethanol: soluble
water
  solubility in water: insoluble
